The values that follow come from PubChem BioAssay (NCI).

“And” between values parts separate entries of the source, which are not always exact repeats. Equal entries are not always repeated.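 Method: 48-hour compound exposure of cells in 96-well plates, five concentrations, linear interpolation of endpoints. Abbreviation: GI50, concentration required for 50% inhibition of growth. Definition used: TGI = concentration required for complete inhibition of growth.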 Bounds are passed on as bounds.

Holding throughout (test): growth of human tumour cells (NCI), 48 h
Assay [1] deals with HCC-2998 colon.
The test system of assay [2] is HCT-116 colon.
Assay [3] concerns HS 578T breast.
Assay [4] concerns PC-3 prostate.
Assay [5] relates to RXF 393 renal.
The test system of assay [6] is SK-MEL-2 melanoma.
The subject of assay [7] is SK-MEL-28 melanoma.
The subject of assay [8] is SK-MEL-5 melanoma.

With `O=C(Nc1ccc(Cl)cc1F)c1ccccc1O`, the GI50 in assay [1] is 3.07 µM; in assay [2], 3.15 µM; in assay [3], 2.68 µM; in assay [4], 2.77 µM; in assay [5] it was 3.23 µM; in assay [6], 2.3 µM. Also, the results for the GI50 in assay [7] and in assay [8] were 3.9 µM and 1.69 µM, respectively. The TGI in assay [1] stood at 13.1 µM; in assay [2] it was 11.3 µM; in assay [3] it was 23.2 µM; in assay [4] it was 10.9 µM; in assay [5], 11.2 µM; in assay [6], 6.59 µM. In addition, the TGI in assay [7] was found to be 21.6 µM; in assay [8], 3.48 µM.

With `Cn1cc(CO)c2c1C(=O)C=C(N1CC1)C2=O`, the GI50 in assay [1] is below 0.0122 µM; in assay [2], below 0.0106 µM; in assay [3], 0.017 µM; in assay [4], 0.0153 µM; in assay [5], below 0.0305 µM; in assay [7], below 0.0166 µM. Further, the GI50 in assay [8] was below 0.01 µM. Besides, the TGI is 0.049 µM in assay [1]; 0.0472 µM in assay [3]; 0.128 µM in assay [4]; 0.914 µM in assay [5]; 0.605 µM in assay [7]; below 0.01 µM in assay [8].

On to `COc1cc2nc(-c3ccc(Cl)cc3)cc(OCCCN3CCCCC3)c2cc1OC`, for which the GI50 was 0.828 µM in assay [2]; 2.11 µM in assay [3]; 1.74 µM in assay [4]; 1.08 µM in assay [5]; 1.45 µM in assay [7]; 1.1 µM in assay [8]. The TGI is above 100 µM in assay [2]; 7.18 µM in assay [3]; above 100 µM in assay [4]; 3.9 µM in assay [5]; 3.07 µM in assay [7]; 2.32 µM in assay [8].

Regarding `CC(C)=CC/C=C(/C)[C@H]1CC[C@]2(C)[C@@H]1CC[C@@H]1[C@@]3(C)CCCNC(C)(C)[C@@H]3CC[C@]12C`, the GI50 is 1.97 µM in assay [1]; 4.96 µM in assay [3]; 1.62 µM in assay [4]; 1.72 µM in assay [5]; 6.06 µM in assay [6]; 2.35 µM in assay [7]. For the same compound, the GI50 in assay [8] is 1.91 µM. The TGI came to 3.56 µM in assay [1]; 22.3 µM in assay [3]; 3.59 µM in assay [4]; 3.31 µM in assay [5]; 22.5 µM in assay [6]; 5.67 µM in assay [7]. Moreover, the TGI in assay [8] is 4.3 µM.

With `NC(=O)NC1C(c2ccccc2)=C1c1ccccc1`, the TGI is 35.8 µM in assay [1]; 38.7 µM in assay [2]; above 100 µM in assay [3]; 39.4 µM in assay [4]; 14.8 µM in assay [5]; 33.3 µM in assay [7]. In assay [8], this compound gave a TGI of 23.6 µM.

For `CCN1CCN(C(c2ccc(C(F)(F)F)cc2)c2ccc3cccnc3c2O)CC1` (stereo not drawn), the GI50 is 0.88 µM in assay [1]; 3.06 µM in assay [2]; 0.361 µM in assay [4]; 3.2 µM in assay [5]; 4.53 µM in assay [6]; 3.68 µM in assay [7]. Further, in assay [8], the GI50 was 2.35 µM. For the same compound, the TGI came to 12.2 µM in assay [1]; 13.5 µM in assay [2]; 17.6 µM in assay [4]; 16 µM in assay [5]; 17.6 µM in assay [6]; 16.6 µM in assay [7]. Besides, the TGI in assay [8] was found to be 7.83 µM.

With `O/N=C/C1C(OCc2ccccc2)C(OCc2ccccc2)C(OCc2ccccc2)CN1Cc1ccccc1` (stereo not drawn), the TGI in assay [1] was above 100 µM; in assay [2], 22.6 µM and > 100 µM; in assay [3], 96.6 µM and 88.5 µM; in assay [5] it was 46.1 µM; in assay [6], 53.9 µM; in assay [7], 44.1 µM and > 100 µM. In assay [8], this compound came in with a TGI of 23.9 µM. The GI50 in assay [3] was 21.5 µM and 3.75 µM.

Consider `S=C1NC2(CCCCCC2)NN1c1ccccc1`, for which the TGI in assay [3], in assay [4], in assay [7] and in assay [8] was above 100 µM throughout.

As to `COc1cnc2c(c1)C(=O)c1c-2n(CCCNC(C)C)c(=O)c2cc(Cl)ccc12`, the GI50 is 1.37 µM in assay [1]; 0.138 µM in assay [2]; 1.52 µM in assay [3]; 0.948 µM in assay [4]; 0.568 µM in assay [5]; 13.3 µM in assay [6]. Also, the GI50 in assay [8] is 1.14 µM. For the same compound, the TGI in assay [1] came out at 2.85 µM; in assay [2], 1.01 µM; in assay [3], 4.08 µM; in assay [4], 2.57 µM; in assay [5] it was 2.01 µM; in assay [6], 34.9 µM. In assay [8], this compound displayed a TGI of 2.38 µM.

Take `O=C(O)C1C2C=CC(O2)C1C(=O)NCc1ccccn1` (stereo not drawn): the TGI in assay [2], in assay [3], in assay [4], in assay [5], in assay [6] and in assay [7] was above 100 µM each time. Also, the TGI in assay [8] is above 100 µM.

Regarding `N#Cc1c(NN)n(C2OC(CO)C(O)C2O)c2ncnc(N)c12` (stereo not drawn), the GI50 in assay [1] is 0.292 µM; in assay [3], 0.0382 µM; in assay [4] it was 0.0778 µM; in assay [5], 0.0398 µM; in assay [6], 0.282 µM; in assay [7], 0.0312 µM. The GI50 in assay [8] was 0.461 µM. Further, the TGI worked out at 2.41 µM in assay [1]; 0.429 µM in assay [3]; 0.415 µM in assay [5]; 0.946 µM in assay [6]; 0.216 µM in assay [7]; 3.05 µM in assay [8].

Consider `CN(C)N=Nc1ccc(NC=O)cc1`, for which the TGI in assay [1], in assay [2], in assay [4], in assay [5], in assay [6] and in assay [7] was above 100 µM each time. In addition, in assay [8], the TGI is above 100 µM.

With `Cn1c2ccccc2c2c3c(c4c5cc(Br)ccc5n(C)c4c21)C(=O)N(O)C3=O`, the GI50 is 1.01 µM in assay [1]; 1.09 µM in assay [3]; 0.497 µM in assay [4]; 0.217 µM in assay [5]; above 48.2 µM in assay [6]; 0.584 µM in assay [7]. The GI50 in assay [8] was 0.129 µM. The TGI in assay [1] is above 100 µM; in assay [3] it was above 100 µM; in assay [4] it was above 100 µM; in assay [5] it was 0.703 µM; in assay [6], above 100 µM; in assay [7], above 100 µM. This compound also showed a TGI in assay [8] of 0.403 µM.

On to `NC(=Nc1c([N+](=O)[O-])cnc2ccccc12)N1CCOCC1`, for which the TGI in assay [2], in assay [3], in assay [4], in assay [6], in assay [7] and in assay [8] was above 100 µM each time.

As for `OC[C@H]1C[C@](O)(c2ccc(Cl)cc2)[C@@H](c2ccc(Cl)cc2)O1`, the GI50 is 23.8 µM in assay [1]; 17.3 µM in assay [2]; 18 µM in assay [3]; 19.8 µM in assay [4]; 20.8 µM in assay [5]; 28.9 µM in assay [7]. Besides, in assay [8], the GI50 was 15.3 µM. The TGI in assay [1] came out at 52.9 µM; in assay [2], 35.6 µM; in assay [3], 45.6 µM; in assay [4] it was 57.5 µM; in assay [5], 39.7 µM; in assay [7], 92.3 µM. Further, the TGI in assay [8] is 29.3 µM.

For `CCN(CC)c1ccc2c(c1)OC(N)=C(C#N)C2c1cc(OC)c2c(c1)OCO2` (stereo not drawn), the GI50 in assay [1] was 0.0302 µM; in assay [2], 0.0324 µM; in assay [3], 0.0167 µM; in assay [4], 0.0309 µM; in assay [6], 0.0476 µM; in assay [7], 0.0345 µM. In addition, the GI50 in assay [8] is 0.0287 µM. Also, the TGI in assay [1] was 1.35 µM; in assay [2] it was 1.78 µM; in assay [3], 0.409 µM; in assay [4], above 100 µM; in assay [6], 13.8 µM; in assay [7], 22.7 µM. Moreover, the TGI in assay [8] was found to be 0.597 µM.

`COc1ccc2c(c1)CCCC(Br)C2=O` (stereo not drawn): the TGI in assay [1] was above 100 µM; in assay [3], above 94.3 µM; in assay [4], 16.7 µM; in assay [5], 17.7 µM; in assay [6], 4.36 µM; in assay [7], 23.3 µM. In assay [8], this compound displayed a TGI of 9.22 µM.

Turning to `CC(C)CCN1c2nc(Nc3cc(F)c(O)c(F)c3)ncc2N(C)C(=O)C1C` (stereo not drawn), the GI50 was 3.54 µM in assay [1]; 4.37 µM in assay [2]; 3.22 µM in assay [3]; 7.94 µM in assay [5]; 3.14 µM in assay [6]; 10.9 µM in assay [7]. Also, the GI50 in assay [8] was 2.65 µM. Further, the TGI was 17.1 µM in assay [1]; 30.1 µM in assay [2]; 32.1 µM in assay [3]; 31.4 µM in assay [5]; 15.2 µM in assay [6]; above 95.8 µM in assay [7]. The compound further displayed a TGI in assay [8] of 14 µM.
